# Reference: patent US11344510B2, “Arylcyclohexylamine derivatives and their use in the treatment of psychiatric disorders” (Gilgamesh Pharmaceuticals, Inc., priority 2019, dated 2022)
# Where a name gives a salt, the structure may show the parent alone. Read-outs that look alike come from different tables or passages of the source.
# What was measured:
# [1] = Oral bioavailability in mice, Method A; type: in vivo; conditions: CD-1 mice; for F: 10 mg/kg; for half-life / Cmax / AUC(0-inf): male, mouse
# Procedure: (§1) Animals. Male CD-1 mice were used in these studies Animals were randomly assigned to treatment groups and were fasted for 4 h before dosing.
# Drugs. Test compounds were dissolved in normal saline (ketamine) or de-ionized water (other compounds) and administered intravenously (iv) or orally (po) at a dose of 10 mg/kg (calculated based on freebase) and at a volume of 5 mL/kg body weight. Compounds were tested as the racemates (indicated by “rac” nomenclature) or pure enantiomers (indicated by “R” or “S” nomenclature).
# Sample Collection and Bioanalysis. Blood samples were collected under 2,2,2-tribromoethanol anesthesia (150 mg/kg, ip) from the orbital sinus at 0.083, 0.25, 0.5, 1, 2, 4, 8 and 24 h (4 animals per time point) into microcontainers containing K2EDTA Immediately after collection of blood, mice were euthanized by cervical dislocation and brain samples were collected at the same time points. All samples were immediately processed, flash-frozen, and stored at −70° C. until subsequent analysis. Plasma samples were separated by centrifugation of whole blood and aliquots (50 μL) were mixed with 200 μL of internal standard solution (400 ng/mL in 1:1 v/v CH3CN:MeOH). After mixing by pipetting and centrifuging for 4 min at 6000 rpm, 0.5 μL of each supernatant was analyzed for drug using a fit-for-purpose liquid chromatography-tandem mass spectrometry (LC-MS/MS) method, with authentic samples of each analyte used for calibration and identification. Brain samples (weight 100 mg±1 mg) were dispersed in 500 μL, of internal standard solution (400 ng/mL in 4:1 v/v MeOH:water) using zirconium oxide beads (115 mg±5 mg) in The Bullet Blender® homogenizer for 30 s at speed 8. After homogenization, the samples were centrifuged for 4 min at 14,000 rpm and 0.5 μL of each supernatant was analyzed for drug using a fit-for-purpose LC-MS/MS method, with authentic samples of each analyte used for calibration and identification.
# (§2) Data Analysis. The drug concentrations of samples below the lower limit of quantitation (LLOQ) were designated as zero. Pharmacokinetic data analysis was performed using noncompartmental, bolus injection or extravascular input analysis models in WinNonlin 5.2 (PharSight). Data points below LLOQ were presented as missing to improve validity of t112 calculations.
# [2] = Exposure after intraperitoneal administration in mice; type: in vivo; conditions: CD-1 mice; for AUC(0-inf) / Cmax: male, mouse; for Cmax and AUC compared to ketamine at 10 mg/kg: plasma and brain
# Procedure: as §1
# Drugs. Test compounds (HCl salts) were dissolved in de-ionized water and administered intraperitoneally (ip) at the indicated doses (calculated based on freebase) and at a volume of 5 mL/kg body weight. Compounds were tested as the racemates (indicated by “rac” nomenclature) or pure enantiomers (indicated by “R” or “S” nomenclature), as indicated.
# Pharmacokinetics. Blood samples were collected under 2,2,2-tribromoethanol anesthesia (150 mg/kg, ip) from the orbital sinus at 0.083, 0.25, 0.5, 1, and 2 h (ketamine, 4 animals per time point) or 0.083, 0.25, 0.5, 1, 2, 4, and 8 h (14R and 14S, 4 animals per time point) into microcontainers containing K2EDTA Immediately after collection of blood, mice were euthanized by cervical dislocation and brain samples were collected at the same time points. All samples were immediately processed, flash-frozen, and stored at −70° C. until subsequent analysis. Plasma samples were separated by centrifugation of whole blood and aliquots (50 μL) were mixed with 200 μL, of internal standard solution (400 ng/mL in 1:1 v/v CH3CN:MeOH). After mixing by pipetting and centrifuging for 4 min at 6000 rpm, 0.5 μL of each supernatant was analyzed for drug using a fit-for-purpose liquid chromatography-tandem mass spectrometry (LC-MS/MS) method, with authentic samples of each analyte used for calibration and identification. Brain samples (weight 200 mg±1 mg) were dispersed in 800 μL of internal standard solution (400 ng/mL in 4:1 v/v MeOH:water) using zirconium oxide beads (115 mg±5 mg) in The Bullet Blender® homogenizer for 30 s at speed 8. After homogenization, the samples were centrifuged for 4 min at 14,000 rpm and 0.5 μL of each supernatant was analyzed for drug using a fit-for-purpose LC-MS/MS method, with authentic samples of each analyte used for calibration and identification.
# as §2
# DAT = target: T1, DAT (Homo sapiens, UniProt Q01959); assay: DAT radioligand binding with [3H]WIN35,428
# T1 construct: expressed in transfected cells; host or cells: CHO (uptake)
# T1 sequence (Q01959 whole entry, species assumed): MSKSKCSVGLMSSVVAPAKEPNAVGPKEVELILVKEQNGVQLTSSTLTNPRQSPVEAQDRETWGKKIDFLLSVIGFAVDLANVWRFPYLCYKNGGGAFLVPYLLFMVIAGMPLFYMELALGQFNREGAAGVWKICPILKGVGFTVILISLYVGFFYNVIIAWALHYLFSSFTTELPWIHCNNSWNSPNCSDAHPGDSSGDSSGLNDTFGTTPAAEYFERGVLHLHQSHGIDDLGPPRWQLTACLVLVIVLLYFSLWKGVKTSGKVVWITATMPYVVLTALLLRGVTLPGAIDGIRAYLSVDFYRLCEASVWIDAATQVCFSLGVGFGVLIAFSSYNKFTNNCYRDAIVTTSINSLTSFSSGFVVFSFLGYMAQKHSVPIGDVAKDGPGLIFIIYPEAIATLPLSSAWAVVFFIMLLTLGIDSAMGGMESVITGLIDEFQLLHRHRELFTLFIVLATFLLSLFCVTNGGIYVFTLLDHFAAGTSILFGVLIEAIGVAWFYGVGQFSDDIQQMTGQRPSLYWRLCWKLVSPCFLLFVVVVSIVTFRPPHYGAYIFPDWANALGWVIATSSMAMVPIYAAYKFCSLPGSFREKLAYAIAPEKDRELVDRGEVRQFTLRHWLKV
# Procedure: Radioligand Binding. Affinity of the test compounds for SERT, NET, and DAT was determined in radioligand binding experiments with [^3H]imipramine, [^3]nisoxetine, and [^3H]WIN35,428, respectively, by WuXi AppTec (Hong Kong) Limited, under the conditions described in Table 15.
# [3] = calculated based on brain exposure
# [4] = brain, 10 mg/kg iv, read-out: t1/2 (iv)
# [5] = brain, 10 mg/kg po, read-out: t1/2 (po)
# [6] = plasma, 10 mg/kg iv, read-out: AUC0-inf (iv) (converted)
# [7] = plasma, 10 mg/kg iv, read-out: t1/2 (iv)
# [8] = plasma, 10 mg/kg po, read-out: AUC0-inf (po) (converted)
# [9] = plasma, 10 mg/kg po, read-out: t1/2 (po)
# [10] = plasma, absolute oral bioavailability
Structure (SMILES),"AUC0-inf (iv) ([1]; brain, 10 mg/kg iv)","AUC0-inf (po) ([1]; brain, 10 mg/kg po)","F [1, 3] [%]","half-life [1, 4] [h]","Cmax ([1]; brain, 10 mg/kg po) [ng/g]","half-life [1, 5] [h]","AUC(0-inf) [1, 6] [ng·h/mL]","half-life [1, 7] [h]","Cmax ([1]; plasma, 10 mg/kg po) [ng/mL]","AUC(0-inf) [1, 8] [ng·h/mL]","half-life [1, 9] [h]","F [1, 10] [%]",Ki (DAT) [µM],other results
"CNC1(c2ccccc2)CCCCC1=O (racemic) [Compound 14rac, 2-(methylamino)-2-phenylcyclohexan-1-one hydrochloride]","457,000 ng*min/g","192,000 ng*min/g",42,0.468,3150,0.657,1930,0.562,930,920,0.705,48,–,–
"CNC1(c2ccccc2Cl)CCCCC1=O (racemic) [rac-ketamine, racemic ketamine, reference compound]","97,000 ng*min/g","6,030 ng*min/g",6.2,–,–,–,–,–,–,–,–,15,–,"AUC(0-inf) ([2]; brain, 10 mg/kg ip): 725 ng·h/mL; Cmax ([2]; brain, 10 mg/kg ip): 2250 ng/mL; AUC(0-inf) ([2]; plasma, 10 mg/kg ip): 382 ng·h/mL; Cmax ([2]; plasma, 10 mg/kg ip): 822 ng/mL"
"O=C1CCCC[C@]1(c1ccccc1)N1CCC1 [Compound 84R, (R)-2-(azetidin-1-yl)-2-phenyl-cyclohexan-1-one]",–,–,–,–,–,–,–,–,–,–,–,–,> 94.7,–
"CN[C@]1(c2ccccc2)CCCCC1=O [Compound 14S, (S)-2-(methylamino)-2-phenylcyclohexan-1-one]","507,000 ng*min/g","166,000 ng*min/g",33,2.12,3480,1.73,2180,2.37,951,993,2.93,45.5,–,"Cmax and AUC compared to ketamine at 10 mg/kg ([2]; 3.16 mg/kg ip): comparable to, or higher than; AUC(0-inf) ([2]; brain, 3.16 mg/kg ip): 1220 ng·h/mL; Cmax ([2]; brain, 3.16 mg/kg ip): 3370 ng/mL; AUC(0-inf) ([2]; plasma, 3.16 mg/kg ip): 385 ng·h/mL; Cmax ([2]; plasma, 3.16 mg/kg ip): 875 ng/mL"
"O=C1CCCC[C@@]1(c1ccccc1)N1CCC1 [Compound 84S, (S)-2-(azetidin-1-yl)-2-phenyl-cyclohexan-1-one]",–,–,–,–,–,–,–,–,–,–,–,–,91.4,–
"CN[C@@]1(c2ccccc2)CCCCC1=O [Compound 14R, (R)-2-(methylamino)-2-phenylcyclohexan-1-one]","548,000 ng*min/g","192,000 ng*min/g",35,11.9,3640,0.735,3520,1.18,1700,1410,0.922,40,–,"Cmax and AUC compared to ketamine at 10 mg/kg ([2]; 3.16 mg/kg ip): comparable to, or higher than; AUC(0-inf) ([2]; brain, 3.16 mg/kg ip): 2530 ng·h/mL; Cmax ([2]; brain, 3.16 mg/kg ip): 3320 ng/mL; AUC(0-inf) ([2]; plasma, 3.16 mg/kg ip): 703 ng·h/mL; Cmax ([2]; plasma, 3.16 mg/kg ip): 1010 ng/mL; exposure (AUC) to 14R relative to 14S ([2]; same dose, 3.16 mg/kg ip): roughly 2 fold"
"O=C1CCCCC1(c1ccccc1)N1CCCC1 (racemic) [Compound 27rac, 2-phenyl-2-(pyrrolidin-1-yl)cyclohexan-1-one]",–,–,–,–,–,–,–,–,–,–,–,–,55.1,–
